Measured values: paper PMC5698704 (Chemmedchem, 2017)

What was measured:
[1] = target: CDK9/CycT1 (Homo sapiens, UniProt P50750); test: CDK9/CycT1 kinase assay; type: biochemical
[2] = test system: HeLa cells; test: Proliferation assay HeLa; type: cell-based; settings: Homo sapiens, 96 h, read-out: HeLa IC50
[3] = test system: CDK2/CycE; test: CDK2/CycE kinase assay; type: biochemical, human; settings: ratio of IC50 values CDK2/CDK9, in-house assays
[4] = test system: MOLM‐13 human AML model; test: MOLM‐13 human AML xenograft model in mice; type: in vivo, mouse; settings: for T/C ratio: end of the experiment
[5] = test system: MOLM‐13 cells; test: Proliferation assay MOLM‐13; type: cell-based; settings: Homo sapiens, MOLM-13, 96 h, read-out: MOLM‐13 IC50
[6] = Metabolic stability in mouse liver microsomes; type: in vitro ADME
[7] = Metabolic stability in human liver microsomes; type: in vitro ADME
[8] = Metabolic stability in rat liver microsomes; type: in vitro ADME; settings: rat, liver microsomes

Sequence of CDK9/CycT1 (P50750 whole entry): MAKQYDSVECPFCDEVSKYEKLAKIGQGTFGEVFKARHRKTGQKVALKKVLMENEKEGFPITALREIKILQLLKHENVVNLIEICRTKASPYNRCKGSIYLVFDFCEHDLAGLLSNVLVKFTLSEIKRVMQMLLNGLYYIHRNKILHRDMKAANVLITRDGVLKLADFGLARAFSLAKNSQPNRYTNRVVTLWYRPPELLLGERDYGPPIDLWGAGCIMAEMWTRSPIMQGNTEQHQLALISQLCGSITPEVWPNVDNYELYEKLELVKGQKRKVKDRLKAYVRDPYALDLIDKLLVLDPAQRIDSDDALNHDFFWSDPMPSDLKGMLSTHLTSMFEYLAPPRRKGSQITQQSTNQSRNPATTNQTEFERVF
Sequence of CDK9/CycT1 (O60563 whole entry partner): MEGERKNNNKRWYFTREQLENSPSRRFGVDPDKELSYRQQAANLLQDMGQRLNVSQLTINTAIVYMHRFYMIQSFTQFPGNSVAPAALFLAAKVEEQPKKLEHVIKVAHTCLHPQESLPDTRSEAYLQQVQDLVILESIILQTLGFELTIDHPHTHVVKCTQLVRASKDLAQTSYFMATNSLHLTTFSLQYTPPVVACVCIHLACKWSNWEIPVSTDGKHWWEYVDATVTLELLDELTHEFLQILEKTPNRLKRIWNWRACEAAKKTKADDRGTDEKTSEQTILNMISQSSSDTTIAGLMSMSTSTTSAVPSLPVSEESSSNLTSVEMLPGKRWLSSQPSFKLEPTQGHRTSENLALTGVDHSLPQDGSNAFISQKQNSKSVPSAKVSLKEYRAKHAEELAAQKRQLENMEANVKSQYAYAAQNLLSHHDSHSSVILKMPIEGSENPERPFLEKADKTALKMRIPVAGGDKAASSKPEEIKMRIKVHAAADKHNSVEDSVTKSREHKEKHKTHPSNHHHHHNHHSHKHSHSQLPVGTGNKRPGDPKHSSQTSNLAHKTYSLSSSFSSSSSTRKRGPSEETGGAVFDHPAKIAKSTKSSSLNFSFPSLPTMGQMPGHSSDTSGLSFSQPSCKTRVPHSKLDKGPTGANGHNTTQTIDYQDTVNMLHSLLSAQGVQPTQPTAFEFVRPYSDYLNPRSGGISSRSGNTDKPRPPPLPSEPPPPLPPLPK

Row | IC50 [1] | IC50 [2] | Selectivity vs. CDK2, ratio of IC50 values [3] | SMILES | also measured
1 | 85 nM | 3200 nM | 21 | COc1cc(F)ccc1-c1ncnc(Nc2cccc(C(C)S(C)(=O)=O)c2)n1 (racemic) [Compound 10, (rac)‐4‐(4‐Fluoro‐2‐methoxyphenyl)‐N‐{3‐[1‐(methylsulfonyl)ethyl]phenyl}‐1,3,5‐triazin‐2‐amine] | –
2 | 20 nM | 890 nM | 13 | COc1cc(F)ccc1-c1ncnc(Nc2cccc(C(F)S(C)(=O)=O)c2)n1 (racemic) [Compound 12, (rac)‐4‐(4‐Fluoro‐2‐methoxyphenyl)‐N‐{3‐[fluoro(methylsulfonyl)methyl]phenyl}‐1,3,5‐triazin‐2‐amine] | –
3 | – | – | – | COc1cc(F)ccc1-c1ncnc(Nc2cccc(CS(N)(=O)=O)c2)n1.Cl [BAY‐958 hydrochloride, 1‐(3‐{[4‐(4‐Fluoro‐2‐methoxyphenyl)‐1,3,5‐triazin‐2‐yl]amino}phenyl)methanesulfonamide hydrochloride] | T/C ratio ([4]; 30 mg kg^−1 daily oral): 0.16; T/C ratio ([4]; 40 mg kg^−1 daily oral): 0.12; body weight change ([4]; 30 or 40 mg kg^−1 daily oral): less than 10%; fatal toxicities ([4]; 30 or 40 mg kg^−1 daily oral): no fatal toxicities
4 | – | – | – | COc1cc(F)ccc1-c1ncnc(Nc2cccc(CS(C)(=O)=O)c2)n1 [Compound 4, 4‐(4‐Fluoro‐2‐methoxyphenyl)‐N‐{3‐[(methylsulfonyl)methyl]phenyl}‐1,3,5‐triazin‐2‐amine] | IC50 [5]: 130 nM
5 | 32 nM | 1340 nM | 19 | COc1cc(F)ccc1-c1ncnc(Nc2cccc(S(C)(=O)=O)c2)n1 [Compound 5, 4‐(4‐Fluoro‐2‐methoxyphenyl)‐N‐[3‐(methylsulfonyl)phenyl]‐1,3,5‐triazin‐2‐amine] | –
6 | 49 nM | 2200 nM | 12 | COc1cc(F)ccc1-c1ncnc(Nc2cccc(CCS(C)(=O)=O)c2)n1 [Compound 6, 4‐(4‐Fluoro‐2‐methoxyphenyl)‐N‐{3‐[2‐(methylsulfonyl)ethyl]phenyl}‐1,3,5‐triazin‐2‐amine] | –
7 | 7 nM | 550 nM | 22 | COc1cc(F)ccc1-c1ncnc(Nc2ccc3c(c2)S(=O)(=O)CC3)n1 [Compound 7, N‐( 1,1‐Dioxido‐2,3‐dihydro‐1‐benzothien‐6‐yl)‐4‐(4‐fluoro‐2‐methoxyphenyl)‐1,3,5‐triazin‐2‐amine] | –
8 | 51 nM | 11000 nM | <1 | COc1cc(F)ccc1-c1ncnc(Nc2ccc3c(c2)CS(=O)(=O)C3)n1 [Compound 8, N‐( 2,2‐Dioxido‐1,3‐dihydro‐2‐benzothien‐5‐yl)‐4‐(4‐fluoro‐2‐methoxyphenyl)‐1,3,5‐triazin‐2‐amine] | –
9 | – | 2900 nM | 43 | COc1cc(F)ccc1-c1ncnc(Nc2cccc(CS(=O)(=O)C(C)(C)C)c2)n1 [Compound 9, N ‐{3‐[(tertButylsulfonyl)methyl]phenyl}‐4‐(4‐fluoro‐2‐methoxyphenyl)‐1,3,5‐triazin‐2‐amine] | –
10 | 1000 nM | – | >20 | COc1cc(F)ccc1-c1ncnc(Nc2cccc(C(C)(C)S(C)(=O)=O)c2)n1 [Compound 11, 4‐(4‐Fluoro‐2‐methoxyphenyl)‐N‐{3‐[2‐(methylsulfonyl)propan‐2‐yl]phenyl}‐1,3,5‐triazin‐2‐amine] | –
11 | 67 nM | 4200 nM | 19 | COc1cc(F)ccc1-c1ncnc(Nc2cccc(C(F)(F)S(C)(=O)=O)c2)n1 [Compound 13, N ‐{3‐[Difluoro(methylsulfonyl)methyl]phenyl}‐4‐(4‐fluoro‐2‐methoxyphenyl)‐1,3,5‐triazin‐2‐amine] | –
12 | 23 nM | 1600 nM | 62 | COc1ccccc1-c1ncnc(Nc2cccc(CS(N)(=O)=O)c2)n1 [Compound 14, 1‐(3‐{[4‐(2‐Methoxyphenyl)‐1,3,5‐triazin‐2‐yl]amino}phenyl)methanesulfonamide] | –
13 | 27 nM | 3800 nM | 108 | COc1cc(Cl)ccc1-c1ncnc(Nc2cccc(CS(N)(=O)=O)c2)n1 [Compound 15, 1‐(3‐{[4‐(4‐Chloro‐2‐methoxyphenyl)‐1,3,5‐triazin‐2‐yl]amino}phenyl)methanesulfonamide] | –
14 | 1800 nM | – | 14 | COc1cnccc1-c1ncnc(Nc2cccc(CS(N)(=O)=O)c2)n1 [Compound 16, 1‐(3‐{[4‐(3‐Methoxypyridin‐4‐yl)‐1,3,5‐triazin‐2‐yl]amino}phenyl)methanesulfonamide] | –
15 | 130 nM | 2900 nM | 6 | NS(=O)(=O)Cc1cccc(Nc2ncnc(-c3ccc(F)cc3O)n2)c1 [Compound 17, 1‐(3‐{[4‐(4‐Fluoro‐2‐hydroxyphenyl)‐1,3,5‐triazin‐2‐yl]amino}phenyl)methanesulfonamide] | –
16 | 270 nM | > 3000 nM | 16 | NS(=O)(=O)Cc1cccc(Nc2ncnc(-c3ccc(F)cc3F)n2)c1 [Compound 18, 1‐(3‐{[4‐(2,4‐Difluorophenyl)‐1,3,5‐triazin‐2‐yl]amino}phenyl)methanesulfonamide] | –
17 | 620 nM | > 3000 nM | 20 | NS(=O)(=O)Cc1cccc(Nc2ncnc(-c3ccccc3OC(F)(F)F)n2)c1 [Compound 19, 1‐[3‐({4‐[2‐(Trifluoromethoxy)phenyl]‐1,3,5‐triazin‐2‐yl}amino)phenyl]methanesulfonamide] | –
18 | 1700 nM | – | >11 | COCc1ccccc1-c1ncnc(Nc2cccc(CS(N)(=O)=O)c2)n1 [Compound 20, 1‐[3‐({4‐[2‐(Methoxymethyl)phenyl]‐1,3,5‐triazin‐2‐yl}amino)phenyl]methanesulfonamide] | –
19 | – | 3000 nM | <1 | CC(=O)Nc1cc(F)ccc1-c1ncnc(Nc2cccc(CS(N)(=O)=O)c2)n1 [Compound 21, N ‐[5‐Fluoro‐2‐(4‐{[3‐(sulfamoylmethyl)phenyl]amino}‐1,3,5‐triazin‐2‐yl)phenyl]acetamide] | –
20 | – | – | 1 | NS(=O)(=O)Cc1cccc(Nc2ncnc(-c3ccc(F)cc3C(F)(F)F)n2)c1 [Compound 22, 1‐[3‐({4‐[4‐Fluoro‐2‐(trifluoromethyl)phenyl]‐1,3,5‐triazin‐2‐yl}amino)phenyl]methanesulfonamide] | –
21 | 4 nM | 100 nM | 34 | NS(=O)(=O)Cc1cccc(Nc2ncnc(-c3ccc(F)cc3OCc3ccccc3)n2)c1 [Compound 23, 1‐[3‐({4‐[2‐(Benzyloxy)‐4‐fluorophenyl]‐1,3,5‐triazin‐2‐yl}amino)phenyl]methanesulfonamide] | recovery at 60 min [6]: 0.2%; recovery at 60 min [7]: 0%; recovery at 60 min [8]: 0%
